Records with an inconclusive call do not appear. The source made the active and inactive calls. No rule for the calls is given here.
target: Histone acetyltransferase RTT109 (Candida albicans (strain SC5314 / ATCC MYA-2876)) (UniProt Q5AAJ8); experiment: C. albicans Rtt109 HAT inhibition curves – biochemical, cherry-picked hits, plate reader, dose response (AID 588764); settings: Rtt109/Vps75 HAT activity;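 as to activity change, negative = inhibition: 0% = neutral control wells and -100% = no enzyme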
Sequence (Q5AAJ8 whole entry, looked up): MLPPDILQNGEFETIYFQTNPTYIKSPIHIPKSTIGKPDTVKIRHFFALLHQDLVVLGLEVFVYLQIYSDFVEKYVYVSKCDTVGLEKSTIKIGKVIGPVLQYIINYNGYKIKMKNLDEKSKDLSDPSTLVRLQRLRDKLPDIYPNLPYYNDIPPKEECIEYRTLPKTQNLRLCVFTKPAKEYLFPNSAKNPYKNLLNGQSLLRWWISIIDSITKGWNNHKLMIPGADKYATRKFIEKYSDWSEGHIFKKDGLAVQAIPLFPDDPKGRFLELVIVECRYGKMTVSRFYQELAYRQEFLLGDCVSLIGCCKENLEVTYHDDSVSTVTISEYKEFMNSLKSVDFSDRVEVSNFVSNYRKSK

Compound | AC50 [µM]
C=CCNc1nnc(SC2CC(=O)N(c3ccc(OC)cc3)C2=O)s1 (centres undefined) | 13.4
CCN1CCN(C(c2cccnc2)c2cc(Cl)c3cccnc3c2O)CC1 (centres undefined) | 13.9
O=c1[nH]c2ccccc2n2c(-c3ccccc3)nnc12 | 1.98
O=S(=O)(Nc1cc(Sc2ncn[nH]2)c(O)c2ccccc12)c1ccccc1 | 4.1
N#CC1=C(S)N(c2ccccc2)C(c2cccs2)NC1=O (centres undefined) | 11.3
N#Cc1c(Nc2ccccc2Cl)s[nH]c1=O | 4.21
O=S(=O)(NN1CCOCC1)c1ccc(Br)cc1 | 11.6
Oc1c(Cl)cc(Cl)c(Cl)c1Cc1c(O)c(Cl)cc(Cl)c1Cl | 5.48
CCSS(=O)(=O)c1cccc2cccnc12 | 5.16
Oc1cc(O)c(CN2CCOCC2)cc1CN1CCOCC1 | 19.5
Cc1nnc(SC2CC(=O)N(c3ccccc3)C2=O)s1 (centres undefined) | 17.5
O=C(O)c1ccccc1NS(=O)(=O)c1cccc(-n2sc3ccccc3c2=O)c1 | 3.49
Cc1ccccc1N1C(S)=C(C#N)C(=O)NC1c1cccs1 (centres undefined) | 17.7
C[C@]12CC[C@@H]3c4cc(O)c(O)cc4CC[C@H]3[C@@H]1CC[C@@H]2O | 9.63
N#CC1=C(S)N(c2ccccc2)C(c2ccc(-c3cccc(Cl)c3)o2)NC1=O (centres undefined) | 11.9
O=C(COC(=O)c1cnccn1)c1ccc([N+](=O)[O-])cc1 | 11.4
COC(=O)/C=C\C(=O)Nc1cccc([N+](=O)[O-])c1 | 5.62

same assay, conditions: Rtt109/Vps75 HAT activity, at 19.5 µM (top of the series)

Compound | activity change, negative = inhibition
C1CCC(C(CC2CCCCN2)C2CCCCC2)CC1 (centres undefined) | inactive
CC#CCN(CC#CC)S(=O)(=O)c1ccc(-n2cnnn2)c(OC)c1 | inactive
Cn1c(SCC(=O)NC2CCCCC2)nnc1-c1cccnc1 | inactive
COc1ccc(OC)c(/C=C2\SC(=S)N(C(C(=O)O)c3ccccc3)C2=O)c1 (centres undefined) | inactive
CCOC(=O)C1CCCN(c2cc(=O)n(C3CCCCC3)c(=O)[nH]2)C1 (centres undefined) | inactive
CCCC[n+]1c(C)sc2cc(OC)ccc21 | inactive
CCCCn1c(N)c(N(Cc2ccccc2OC)C(=O)c2sccc2C)c(=O)[nH]c1=O | inactive
O=C(/C=C/c1ccc(Cl)cc1)NCc1ccncc1 | inactive
COCCNC(=O)C(c1ccc(O)cc1)N(Cc1ccccc1)C(=O)CCC(=O)Nc1ccccn1 (centres undefined) | inactive
CCN1C=CC(=C2C(=O)c3ccccc3C2=O)C=C1 | inactive
COc1cc(-c2nnc(SCC(=O)OC3CCCCC3)o2)cc(OC)c1OC | inactive
COc1ccc(/C=C2/SC(=O)N(NS(=O)(=O)c3ccccc3)C2=S)cc1OC | inactive
CCOC(=O)c1c(C)n(-c2ccc(C)cc2)c2ccc(OCC(O)CNCCCO)cc12 (centres undefined) | inactive
Cc1cccc(NC(=O)CCN2C(=O)c3ccccc3C2=O)c1 | inactive
COc1cccc(/C=C2/Sc3ccc(C(=O)NCCCN4CCCC4)cc3NC2=O)c1 | inactive
COc1cc(OC)c(NC(=O)CN(C)S(=O)(=O)c2ccc(-c3ccc(=O)[nH]n3)s2)cc1Cl | inactive
CCN1/C(=C/c2ccc3cc(C)cc(C)c3[n+]2CC)Sc2cc(C)ccc21 | inactive
Cc1nn(C)cc1[C@@H]1C[C@H]2CN(Cc3cccc(Cl)c3)C(=O)[C@]23CCCN13 | inactive
Cc1cccn2cc(CCNS(=O)(=O)c3cccs3)nc12 | inactive
O=C1/C(=C/c2ccc(F)cc2)SC(=S)N1CC(=O)N1CCCCC1c1cccnc1 (centres undefined) | inactive
COc1cc(/C=N/N=C(N)N)ccc1OCc1ccccc1Cl | inactive
CN(C)S(=O)(=O)Oc1ccccc1C(=O)Nc1ccccc1Cl | inactive
CC(C)C(C(=O)Nc1cccnc1)N1C(=O)c2ccccc2C1=O (centres undefined) | inactive
CN(C)c1ccc(NC(=O)/C=C/c2ccccc2Cl)cc1 | inactive
COc1cc(NC(=O)C(Cc2ccccc2)n2cccc2)cc(OC)c1 (centres undefined) | inactive
O=C(Nc1ccccc1Cl)c1cc(S(=O)(=O)N2CCCCC2)ccc1N1CCOCC1 | inactive

Compound | activity change, negative = inhibition
COc1ccccc1NS(=O)(=O)c1ccc(C)c(C(=O)NCC2(N(C)C)CCCCC2)c1 | inactive
Cc1ccc2sc(C)[n+](CCO)c2c1 | inactive
O=C(OCc1ccc(Br)cc1)c1ccncc1 | inactive
COc1ccccc1CC(=O)N1CCN(S(=O)(=O)c2ccccc2F)CC1 | inactive
O=C(Nc1cccc(-c2nc3cccnc3s2)c1)c1cccnc1Cl | inactive
C[C@H]1CC[C@H]2NCCN[C@H]2C1 | inactive
N=c1n(CCN2CCCCC2)c2ccccc2n1CC(O)c1ccc(Cl)c(Cl)c1 (centres undefined) | inactive
CCc1ccccc1NC(=O)C1CCN(C(=O)c2ccc([N+](=O)[O-])cc2)CC1 | inactive
CCCCOc1ccc(C2C(C(=O)c3ccc(C)o3)=C(O)C(=O)N2Cc2ccco2)cc1 (centres undefined) | inactive
CC(=O)Nc1nc(-c2ccccc2)c(-c2ccccc2)o1 | inactive
C#CCOCCOCCOCCNc1nc(N2CCN(C(=O)C([C@@H](C)O)n3cc([C@@H](N)CCCCN)nn3)CC2)nc(N2CCN(C(=O)[C@H](CCCCN)n3cc(CN)nn3)CC2)n1 (some centres undefined) | inactive
CN(CC(=O)Nc1ccc(Cl)cc1)C(=O)c1cccc(S(=O)(=O)NCc2ccccc2)c1 | inactive
C#CCOCCOCCOCCNc1nc(N2CCN(C(=O)[C@H](CCCCN)n3cc([C@@H](N)CC(C)C)nn3)CC2)nc(N2CCN(C(=O)[C@H](CCCCN)n3cc([C@@H](N)CC(C)C)nn3)CC2)n1 | inactive
N=C1c2ccccc2CN1NC(=O)c1ccccc1 | inactive
COc1ccc(CNC(=O)COC(=O)c2ccc(S(=O)(=O)N3CCCCC3)cc2)cc1 | inactive
Cc1ccc(C#N)c(SCc2nnc(-c3ccc(Cl)cc3)o2)n1 | inactive
Cc1ccc(C(=O)NCCCNC(=O)COc2ccc(C)c(C)c2)cn1 | inactive
CCC(=O)Nc1cc(C)c(OC)c(C)c1 | inactive
O=C(NCc1ccc2c(c1)OCO2)c1ccc(CS(=O)Cc2cccc(Cl)c2)o1 (centres undefined) | inactive
CCOC(=O)c1c(C)n(-c2ccc(C)cc2)c2ccc(OCC(O)CNCC3CCCO3)cc12 (centres undefined) | inactive
CN(C)C(CNC(=O)c1ccc(C(=O)c2ccccc2)cc1)c1ccccc1 (centres undefined) | inactive
O=C(Nc1ccc(F)cc1)c1c(O)c2c(n(Cc3ccccc3)c1=O)CCCC2 | inactive
COc1cccc(/C=C2\SC(=S)N(C(C)C(=O)NC3C=CS(=O)(=O)C3)C2=O)c1 (centres undefined) | inactive
COc1ccc(CNC(=O)C2(c3ccc(Cl)cc3)CC2)cc1 | inactive
Fc1ccc(C2CC(c3ccco3)=Nc3ccccc3S2)cc1 (centres undefined) | inactive
COc1ccc(/C=C/C(=O)O)cc1S(=O)(=O)NCc1ccco1 | inactive

Source: PubChem BioAssay AID588764 (Broad Institute, 2011)
